Measurements as given in ChEMBL document CHEMBL1201862, “PubChem BioAssay data set” (2004).
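Five concentrations, 48 hours, 96-well plates. GI50 = concentration required for 50% inhibition of growth.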 The source made the active and inactive calls. No stated cut-off is given here; in the data, active = GI50 up to about 1.1 µM and inactive = higher.

How the values were obtained:
Assay in all cases: growth of human tumour cells (NCI), 48 h
SN12C = tested on: SN12C
NCI-H23 = tested on: NCI-H23
NCI-H226 = tested on: NCI-H226
A549 = tested on: A549
UO-31 = tested on: UO-31
OVCAR-5 = tested on: OVCAR-5
786-0 = tested on: 786-0
HOP-62 = tested on: HOP-62
PC-3 = tested on: PC-3
SNB-75 = tested on: SNB-75
UACC-257 = tested on: UACC-257
SR = tested on: SR
MDA-MB-435 = tested on: MDA-MB-435
OVCAR-8 = tested on: OVCAR-8
RPMI-8226 = tested on: RPMI-8226
OVCAR-4 = tested on: OVCAR-4
DU-145 = tested on: DU-145
SNB-19 = tested on: SNB-19
HCT-15 = tested on: HCT-15
A498 = tested on: A498
HT-29 = tested on: HT-29
SK-MEL-5 = tested on: SK-MEL-5
EKVX = tested on: EKVX
SF-268 = tested on: SF-268
TK-10 = tested on: TK-10
UACC-62 = tested on: UACC-62
CCRF-CEM = tested on: CCRF-CEM
U-251 = tested on: U-251
Hs-578T = tested on: Hs-578T
SF-539 = tested on: SF-539
BT-549 = tested on: BT-549
ACHN = tested on: ACHN
KM12 = tested on: KM12
HL-60 = tested on: HL-60
MDA-MB-231 = tested on: MDA-MB-231
LOX IMVI = tested on: LOX IMVI
OVCAR-3 = tested on: OVCAR-3
M14 = tested on: M14
NCI-H460 = tested on: NCI-H460
CAKI-1 = tested on: CAKI-1
T47D = tested on: T47D
HCC 2998 = tested on: HCC 2998
COLO 205 = tested on: COLO 205
SK-MEL-2 = tested on: SK-MEL-2
HOP-92 = tested on: HOP-92
SK-OV-3 = tested on: SK-OV-3
SW-620 = tested on: SW-620
MDA-N = tested on: MDA-N
SF-295 = tested on: SF-295
Malme-3M = tested on: Malme-3M
NCI/ADR-RES = tested on: NCI/ADR-RES
SK-MEL-28 = tested on: SK-MEL-28
K562 = tested on: K562
HCT-116 = tested on: HCT-116
RXF 393 = tested on: RXF 393
IGROV-1 = tested on: IGROV-1
MOLT-4 = tested on: MOLT-4
NCI-H522 = tested on: NCI-H522
MCF7 = tested on: MCF7

CN1CCc2cc(N)cc3c2C1Cc1ccc(O)c(O)c1-3 (stereo unspecified)
GI50 (SN12C): 34.5 µM (inactive) | GI50 (NCI-H23): 46.8 µM (inactive) | GI50 (NCI-H226): 32.7 µM (inactive) | GI50 (A549): 34.2 µM (inactive) | GI50 (UO-31): 42.8 µM (inactive) | GI50 (OVCAR-5): 85.1 µM (inactive) | GI50 (786-0): 33 µM (inactive) | GI50 (HOP-62): 49.3 µM (inactive) | GI50 (PC-3): 38.2 µM (inactive) | GI50 (SNB-75): 40.9 µM (inactive) | GI50 (UACC-257): 16.3 µM (inactive) | GI50 (SR): 28.4 µM (inactive) | GI50 (MDA-MB-435): 36.8 µM (inactive) | GI50 (OVCAR-8): 30.7 µM (inactive) | GI50 (RPMI-8226): 21.8 µM (inactive) | GI50 (OVCAR-4): 31.6 µM (inactive) | GI50 (DU-145): 56.6 µM (inactive) | GI50 (SNB-19): 46.6 µM (inactive) | GI50 (HCT-15): 36.4 µM | GI50 (A498): 57.7 µM (inactive) | GI50 (HT-29): 34.4 µM (inactive) | GI50 (SK-MEL-5): 20.4 µM (inactive) | GI50 (EKVX): 43.6 µM (inactive) | GI50 (SF-268): 6.43 µM (inactive) | GI50 (TK-10): 24.7 µM (inactive) | GI50 (UACC-62): 23.7 µM (inactive) | GI50 (CCRF-CEM): 3.75 µM (inactive) | GI50 (U-251): 39.5 µM (inactive) | GI50 (Hs-578T): 53.5 µM (inactive) | GI50 (SF-539): 38 µM (inactive) | GI50 (BT-549): 58.2 µM (inactive) | GI50 (ACHN): 25.8 µM (inactive) | GI50 (KM12): 33.4 µM (inactive) | GI50 (HL-60): 25.8 µM (inactive) | GI50 (MDA-MB-231): 75 µM (inactive) | GI50 (LOX IMVI): 18.6 µM (inactive) | GI50 (OVCAR-3): 27.4 µM (inactive) | GI50 (M14): 34 µM (inactive) | GI50 (NCI-H460): 30.5 µM (inactive) | GI50 (CAKI-1): 37.2 µM (inactive) | GI50 (T47D): 61.8 µM (inactive) | GI50 (HCC 2998): 12.6 µM (inactive) | GI50 (COLO 205): 37.9 µM (inactive) | GI50 (SK-MEL-2): 40.9 µM (inactive) | GI50 (HOP-92): 51.2 µM (inactive) | GI50 (SK-OV-3): 52.7 µM (inactive) | GI50 (SW-620): 31.8 µM (inactive) | GI50 (MDA-N): 34.7 µM (inactive) | GI50 (SF-295): 39.8 µM (inactive) | GI50 (Malme-3M): 37.8 µM (inactive) | GI50 (NCI/ADR-RES): 36.8 µM (inactive) | GI50 (SK-MEL-28): 35.6 µM (inactive) | GI50 (K562): 24.9 µM (inactive) | GI50 (HCT-116): 32.2 µM (inactive) | GI50 (RXF 393): 55.7 µM (inactive) | GI50 (IGROV-1): 33.7 µM (inactive) | GI50 (MOLT-4): 3.92 µM (inactive) | GI50 (NCI-H522): 27.2 µM (inactive)

CC(C)(C)c1cc(C2COC(=O)COCCOCC(=O)OCCOCCO2)cc(C(C)(C)C)c1O (stereo unspecified)
GI50 (SN12C): 21.8 µM (inactive) | GI50 (NCI-H23): 42.7 µM (inactive) | GI50 (NCI-H226): > 100 µM (inactive) | GI50 (A549): > 100 µM (inactive) | GI50 (UO-31): 15.6 µM (inactive) | GI50 (OVCAR-5): 21.7 µM (inactive) | GI50 (786-0): 10 µM (inactive) | GI50 (HOP-62): 36.2 µM (inactive) | GI50 (PC-3): 22.4 µM (inactive) | GI50 (SNB-75): 20.9 µM (inactive) | GI50 (UACC-257): > 71.6 µM (inactive) | GI50 (SR): 21.8 µM (inactive) | GI50 (MDA-MB-435): 37.3 µM (inactive) | GI50 (OVCAR-8): 41.6 µM (inactive) | GI50 (RPMI-8226): > 100 µM (inactive) | GI50 (OVCAR-4): > 100 µM (inactive) | GI50 (DU-145): 19.5 µM (inactive) | GI50 (SNB-19): > 100 µM (inactive) | GI50 (HCT-15): 50.2 µM | GI50 (A498): > 80.5 µM (inactive) | GI50 (HT-29): 37.2 µM (inactive) | GI50 (SK-MEL-5): > 100 µM (inactive) | GI50 (EKVX): > 95.1 µM (inactive) | GI50 (SF-268): 34 µM (inactive) | GI50 (TK-10): 16.5 µM (inactive) | GI50 (UACC-62): 47.9 µM (inactive) | GI50 (CCRF-CEM): > 100 µM (inactive) | GI50 (U-251): 36.7 µM (inactive) | GI50 (Hs-578T): 27.7 µM (inactive) | GI50 (SF-539): > 82.8 µM (inactive) | GI50 (BT-549): > 51.1 µM (inactive) | GI50 (ACHN): 20.7 µM (inactive) | GI50 (KM12): > 100 µM (inactive) | GI50 (HL-60): 39.2 µM (inactive) | GI50 (MDA-MB-231): 46.6 µM (inactive) | GI50 (LOX IMVI): 18.7 µM (inactive) | GI50 (OVCAR-3): > 100 µM (inactive) | GI50 (M14): 42.1 µM (inactive) | GI50 (NCI-H460): 49.4 µM (inactive) | GI50 (CAKI-1): 18 µM (inactive) | GI50 (T47D): 29.2 µM (inactive) | GI50 (HCC 2998): 23 µM (inactive) | GI50 (COLO 205): 32.5 µM (inactive) | GI50 (SK-MEL-2): > 100 µM (inactive) | GI50 (HOP-92): 24.7 µM (inactive) | GI50 (SK-OV-3): 32.1 µM (inactive) | GI50 (SW-620): 53.6 µM (inactive) | GI50 (MCF7): > 100 µM (inactive) | GI50 (SF-295): 24 µM (inactive) | GI50 (Malme-3M): > 100 µM (inactive) | GI50 (NCI/ADR-RES): > 100 µM (inactive) | GI50 (SK-MEL-28): 37.2 µM (inactive) | GI50 (K562): > 100 µM (inactive) | GI50 (HCT-116): > 68.2 µM (inactive) | GI50 (RXF 393): 23.1 µM (inactive) | GI50 (IGROV-1): 72.8 µM (inactive) | GI50 (MOLT-4): > 100 µM (inactive) | GI50 (NCI-H522): > 47 µM (inactive)
